Results published in patent US10202395B2, “Macrocycle with repeating triazole-carbazole units” (INDIANA UNIVERSITY RESEARCH & TECHNOLOGY CORPORATION, priority 2015, dated 2019).
Several values for one entry are separate records, joined by “and”; a condition that tells them apart may be missing. Equal values may be shown once.

Legend:
[1] = Anion binding constants by UV-Vis titration, I^−; settings: 20% MeOH/CHCl3; for K2/K1: I^−, positive cooperativity
Description: (§1) FIG. 2B depicts an exemplary plot of anion binding constants obtained from equilibrium restricted factor analysis (D. A. Griend, D. K. Bediako, M. J. DeVries, N. A. DeJong, L. P. Heeringa, Inorg Chem 2008, 47, 656-662) of UV-Vis titration data (20% MeOH/CHCl3). Salts added as TBA^+ with exception of FeCl4^− added as the 1-ethyl-3-methylimidazolium salt.
(§2) The tricarb-anion stability constants were determined from UV-Vis titrations and evaluated using equilibrium restricted factor analysis (D. A. Griend, D. K. Bediako, M. J. DeVries, N. A. DeJong, L. P. Heeringa, Inorg Chem 2008, 47, 656-662) as implemented with Sivvu by employing the following equilibria: tricarb+X^− ? tricarb·X^−K1 (1) tricarb·X^−+tricarb ? tricarb2·X^−K2 (2) 2 tricarb+X^− ? tricarb2·X^−β2 (3)

[2] = Anion binding constants by UV-Vis titration, ClO4^−; settings: 20% MeOH/CHCl3; for logβ2: 2:1 sandwich; for K2/K1: ClO4^−, positive cooperativity
Description: as §1, §2

[3] = Anion binding constants by UV-Vis titration, ReO4^−; settings: 20% MeOH/CHCl3; for K2/K1: ReO4^−, positive cooperativity
Description: as §1, §2

[4] = Anion binding constants by UV-Vis titration, PF6^−; settings: 20% MeOH/CHCl3; for logβ2: 2:1 sandwich; for K2/K1: PF6^−, positive cooperativity
Description: as §1, §2

[5] = Anion binding constants by UV-Vis titration, SbF6^−; settings: 20% MeOH/CHCl3; for logβ2: 2:1 sandwich; for K2/K1: SbF6^−, positive cooperativity
Description: as §1, §2

[6] = Anion binding constants by UV-Vis titration, FeCl4^−; settings: 20% MeOH/CHCl3; for K2/K1: FeCl4^−, positive cooperativity
Description: as §1, §2

[7] = Solution phase self-association, variable concentration UV-Vis, isodesmic equal-K model; assay type: physicochemical
Description: Solution phase self-association was examined using variable concentration ^1H NMR and UV-Vis spectra. All aromatic ^1H NMR peaks shift upfield (FIG. 3B) with concentration (10×10^−6 M−2×10^−3 M) consistent with p stacking (R. B. Martin, Chem. Rev. 1996, 96, 3043-3064). UV-Vis spectroscopy was used to quantify the extent of self-association (S. A. Jenekhe, L. Lu, M. M. Alam, Macromolecules 2001, 34, 7315-7324) (0.7 to 24×10^−6 M, FIG. 3C). An isodesmic equal-K model (R. B. Martin, Chem. Rev. 1996, 96, 3043-3064) was used to quantify self-association (KE) to give KE=300,000±10,000 M^−1 in 20% MeOH/CHCl3 (ε=10.4). The self-association is high relative to other macrocycles (W. Zhang, J. S. Moore, Angew. Chem. Int. Ed. 2006, 45, 4416-4439) and believed to be driven by solvophobic effects and dipolar coupling. Consistent with dipolar coupling, use of pure CHCl3 with a lower polarity (ε=4.8), increases KE to 790,000±30,000 M^−1 (S.-L. Lee, Z. Yuan, L. Chen, K. S. Mali, K. Müllen, S. De Feyter, J Am. Chem. Soc. 2014, 136, 4117-4120; S.-L. Lee, Z. Yuan, L. Chen, K. S. Mali, K. Müllen, S. De Feyter, J. Am. Chem. Soc. 2014; P. Samori, N. Severin, C. D. Simpson, K. Müllen, J. P. Rabe, J. Am. Chem. Soc. 2002, 124, 9454-9457).

[8] = Cyclic voltammetry in solution; assay type: physicochemical; settings: 1×10^−3 M, 0.1 M tetrabutylammonium hexafluorophosphate, glassy carbon working electrode, chloroform, room temperature
Description: FIG. 7 depicts a representative current-voltage response curve recorded using cyclic voltammetry of tricarb of Formula (IB) in solution. […] Conditions: [tricarb of Formula (IB)]=1×10^−3 M, 0.1 M tetrabutylammonium hexafluorophosphate, glassy carbon working electrode, platinum counter electrode, chloroform, room temperature, Ar degassed.

[9] = listed as tricarb of Formula (I)
[10] = ClO4^− as tetrabutylammonium salt
[11] = ReO4^− as tetrabutylammonium salt
[12] = PF6^− as tetrabutylammonium salt
[13] = SbF6^− as tetrabutylammonium salt
[14] = FeCl4^− as 1-ethyl-3-methylimidazolium salt

SMILES: CCCCCCCCCCn1c2ccc3cc2c2cc(ccc21)n1cc(nn1)c1ccc2c(c1)c1cc(ccc1n2CCCCCCCCCC)n1cc(nn1)c1ccc2c(c1)c1cc(ccc1n2CCCCCCCCCC)n1cc3nn1 [tricarb of Formula (IB), tridecyl-tricarbazolo-triazolophane]
- logβ2 ([1]; I^− as tetrabutylammonium salt, 2:1 sandwich): 9.3 ± 0.3
- logK1 ([1]; I^− as tetrabutylammonium salt, tricarb+X^− = tricarb·X^−): 4.3 ± 0.1
- logK2 ([1]; I^− as tetrabutylammonium salt, tricarb·X^−+tricarb = tricarb2·X^−): 5.1 ± 0.2
- K2/K1 ([1]; listed as tricarb): 6 ± 3
- K2/K1 [1, 9]: ~5
- logK1 [2, 10]: 4.04 ± 0.01
- logK2 [2, 10]: 5.87 ± 0.01
- logβ2 ([2]; ClO4^− as tetrabutylammonium salt, listed as Tricarb of Formula (IB)): 10
- logβ2 ([2]; ClO4^− as tetrabutylammonium salt, listed as tricarb): 10.04 ± 0.02
- K2/K1 ([2]; listed as tricarb): 67 ± 3
- K2/K1 [2, 9]: ~70
- logK1 [3, 11]: 3.8 ± 0.1
- logK2 [3, 11]: 6.2 ± 0.1
- logβ2 ([3]; ReO4^− as tetrabutylammonium salt, 2:1 sandwich): 10.0 ± 0.2
- K2/K1 ([3]; listed as tricarb): 200 ± 100
- K2/K1 [3, 9]: 200
- logK1 [4, 12]: 4.46 ± 0.01
- logK2 [4, 12]: 6.94 ± 0.01
- logβ2 ([4]; PF6^− as tetrabutylammonium salt, listed as Tricarb of Formula (IB)): 11.4
- logβ2 ([4]; PF6^− as tetrabutylammonium salt, listed as tricarb): 11.40 ± 0.02
- K2/K1 ([4]; listed as tricarb): 300 ± 60
- K2/K1 [4, 9]: 300
- logK1 [5, 13]: 5.2 ± 0.2
- logK2 [5, 13]: 6.4 ± 0.2
- logβ2 ([5]; SbF6^− as tetrabutylammonium salt, listed as Tricarb of Formula (IB)): 11.6
- logβ2 ([5]; SbF6^− as tetrabutylammonium salt, listed as tricarb): 11.6 ± 0.4
- K2/K1 ([5]; listed as tricarb): 30 ± 20
- K2/K1 [5, 9]: ~30
- logK1 [6, 14]: 4.0 ± 0.1
- logK2 [6, 14]: 3.7 ± 0.2
- logβ2 ([6]; FeCl4^− as 1-ethyl-3-methylimidazolium salt, 2:1 sandwich): 7.7 ± 0.3
- K2/K1 ([6]; listed as tricarb): 5.2 ± 0.2
- K2/K1 [6, 9]: ~5
- self-association (KE) ([7]; 20% MeOH/CHCl3 (ε=10.4), 0.7 to 24×10^−6 M): 300,000±10,000 M^−1
- self-association (KE) ([7]; pure CHCl3 (ε=4.8)): 790,000±30,000 M^−1
- half-wave oxidation potential E1/2 [8]: 0.8 V vs Ag/AgCl
- peak potentials [8]: 0.95 V and 0.65 V
